Source: patent US8334316B2, “Substituted organosulfur compounds and methods of using thereof” (ACEA Biosciences, Inc., priority 2004, dated 2012)
“And” between values parts separate entries of the source, which are not always exact repeats. Identical values can stand only once. Marks after values point to notes of the source that are not given here.

Experiments:
[1] = tested on: P388 lymphocytic leukemia; assay: Murine P388 lymphocytic leukemia model (intraperitoneal transplantation), life span; assay type: in vivo, mouse; settings: for Average life span X ± SD: observed within 30 days; for Life span ratio %: vs solvent control
Method: Both male and female mice were used.
Preparation and Administration of Test Compounds.
To prepare cancer cells for the P388 murine lymphocytic leukemia model, ascites of a P388 leukemia-bearing mouse were removed under sterile condition. The ascites were diluted in normal saline (1:6 for ascites to normal saline) to prepare cell suspension. 0.2 mL of the cell suspension was then injected intraperitoneally. […] The life span of carrier mice was determined within 30 days. The life span ratio comparing to the negative control group of the carrier mice in each compound treatment group was calculated according to the formula: Life span ratio %=average life span for the compound treatment group/average life span for the negative control group×100% (4)

HCT-8 human colon cancer = HCT-8 human colon cancer xenograft in nude mice (Example 3); assay type: in vivo; settings: for tumor inhibition rate %: vs solvent control
Description: Both male and female mice were used. […] Test control. […] Preparation and Administration of Test Compounds. […] For human tumor xenograft model, all used materials, including animal food, animal cage, supporting materials and apparatus contacted by animals, were high-pressure sterilized. Nude mice were maintained in laminar flow shelves under SPF condition. After tumor transplantation, mouse weight and tumor size in each compound dosage group were dynamically monitored and plotted.

[2] = 8 mg/kg/d iv x7 qd, 7 day after transplantation
[3] = 20 mg/kg/d iv x7 qd, 7 day after transplantation
[4] = 20 mg/kg/d iv x7 qd, 25 d (end)
[5] = 50 mg/kg/d iv x7 qd, 7 day after transplantation
[6] = 50 mg/kg/d iv x7 qd, 25 d (end)

Fc1ccc(CSSSCc2ccc(F)cc2)cc1 [ACEA100108, Di(p-fluorobenzyl)trisulfide]
animal No. beginning/end (survivors) ([1]; 25 mg/kg/d iv x7 qd): 10/0
Average life span X ± SD ([1]; 25 mg/kg/d iv x7 qd): 10.4 ± 1.17
Life span ratio % ([1]; 25 mg/kg/d iv x7 qd): 107.22%
animal No. beginning/end (survivors) ([1]; 50 mg/kg/d iv x7 qd): 10/0
Average life span X ± SD ([1]; 50 mg/kg/d iv x7 qd): 10.3 ± 0.95
Life span ratio % ([1]; 50 mg/kg/d iv x7 qd): 106.18%
Anticancer effect on P388 mouse leukemia model ([1]; 50, 25, 12.5 mg/kg iv x7 qd): did not exhibit anticancer effect
TV inhibition rate % T/C (HCT-8 human colon cancer; 8 mg/kg/d iv x7 qd): 55.73%
Tumor weight (HCT-8 human colon cancer; 8 mg/kg/d iv x7 qd): 1.30 ± 0.23 g
Mouse Body weight (HCT-8 human colon cancer; 8 mg/kg/d iv x7 qd, 0 Day (beginning)): 18.8 g and 18.8 ± 0.8 g
Mouse Body weight (HCT-8 human colon cancer; 8 mg/kg/d iv x7 qd, 7 d): 19.7 ± 0.8 g
Mice with palpable tumor / total mice (HCT-8 human colon cancer; [2]): 6/6††
Tumor volume (cm^3) (HCT-8 human colon cancer; [2]): 0.01 cm^3
Mouse Body weight (HCT-8 human colon cancer; 8 mg/kg/d iv x7 qd, 14 d): 21.3 ± 1.2 g
Tumor volume (cm^3) (HCT-8 human colon cancer; 8 mg/kg/d iv x7 qd, 14 d): 0.166 ± 0.05 cm^3
Mouse Body weight (HCT-8 human colon cancer; 8 mg/kg/d iv x7 qd, 21 d): 21.8 ± 1.2 g
Tumor volume (cm^3) (HCT-8 human colon cancer; 8 mg/kg/d iv x7 qd, 21 d): 0.379 ± 0.04 cm^3
Mouse Body weight (HCT-8 human colon cancer; 8 mg/kg/d iv x7 qd, 25 d (end)): 22.5 g and 22.5 ± 1 g
Tumor volume (cm^3) (HCT-8 human colon cancer; 8 mg/kg/d iv x7 qd, 25 d (end)): 0.870 cm^3 and 0.87 ± 0.15 cm^3
tumor inhibition rate % (HCT-8 human colon cancer; 8 mg/kg/d iv x7 qd): 15.03%
TV inhibition rate % T/C (HCT-8 human colon cancer; 20 mg/kg/d iv x7 qd): 41.89%
Tumor weight (HCT-8 human colon cancer; 20 mg/kg/d iv x7 qd): 1.10 ± 0.23 g
Mouse Body weight (HCT-8 human colon cancer; 20 mg/kg/d iv x7 qd, 0 Day (beginning)): 18.5 g and 18.5 ± 1 g
Mouse Body weight (HCT-8 human colon cancer; 20 mg/kg/d iv x7 qd, 7 d): 19.5 ± 1 g
Mice with palpable tumor / total mice (HCT-8 human colon cancer; [3]): 6/6††
Tumor volume (cm^3) (HCT-8 human colon cancer; [3]): 0.01 cm^3
Mouse Body weight (HCT-8 human colon cancer; 20 mg/kg/d iv x7 qd, 14 d): 20.7 ± 1 g
Tumor volume (cm^3) (HCT-8 human colon cancer; 20 mg/kg/d iv x7 qd, 14 d): 0.122 ± 0.04 cm^3
Mouse Body weight (HCT-8 human colon cancer; 20 mg/kg/d iv x7 qd, 21 d): 21.8 ± 1.2 g
Tumor volume (cm^3) (HCT-8 human colon cancer; 20 mg/kg/d iv x7 qd, 21 d): 0.317 ± 0.05 cm^3
Mouse Body weight (HCT-8 human colon cancer; [4]): 22.5 g and 22.5 ± 1 g
Tumor volume (cm^3) (HCT-8 human colon cancer; [4]): 0.654 cm^3 and 0.654 ± 0.09 cm^3
tumor inhibition rate % (HCT-8 human colon cancer; 20 mg/kg/d iv x7 qd): 28.10%
TV inhibition rate % T/C (HCT-8 human colon cancer; 50 mg/kg/d iv x7 qd): 33.63%
Tumor weight (HCT-8 human colon cancer; 50 mg/kg/d iv x7 qd): 0.832 ± 0.10 g
Mouse Body weight (HCT-8 human colon cancer; 50 mg/kg/d iv x7 qd, 0 Day (beginning)): 18.3 g and 18.3 ± 1 g
Mouse Body weight (HCT-8 human colon cancer; 50 mg/kg/d iv x7 qd, 7 d): 17.7 ± 1.2 g
Mice with palpable tumor / total mice (HCT-8 human colon cancer; [5]): 6/6††
Tumor volume (cm^3) (HCT-8 human colon cancer; [5]): 0.01 cm^3
Mouse Body weight (HCT-8 human colon cancer; 50 mg/kg/d iv x7 qd, 14 d): 17.8 ± 2.3 g
Tumor volume (cm^3) (HCT-8 human colon cancer; 50 mg/kg/d iv x7 qd, 14 d): 0.112 ± 0.02 cm^3
Mouse Body weight (HCT-8 human colon cancer; 50 mg/kg/d iv x7 qd, 21 d): 19.5 ± 1.6 g
Tumor volume (cm^3) (HCT-8 human colon cancer; 50 mg/kg/d iv x7 qd, 21 d): 0.236 ± 0.02 cm^3
Mouse Body weight (HCT-8 human colon cancer; [6]): 20.3 g and 20.3 ± 1 g
Tumor volume (cm^3) (HCT-8 human colon cancer; [6]): 0.525 cm^3 and 0.525 ± 0.14 cm^3
tumor inhibition rate % (HCT-8 human colon cancer; 50 mg/kg/d iv x7 qd): 45.62%
